According to ChEMBL document CHEMBL3600291, “Synthesis and carbonic anhydrase I, II, IX and XII inhibitory activity of sulfamates incorporating piperazinyl-ureido moieties” (Bioorg Med Chem, 2015):

How the values were obtained:
[1] = target: Carbonic anhydrase 1 (Homo sapiens, UniProt P00915); assay: Inhibition of human recombinant carbonic anhydrase-1 pre-incubated for 15 mins by stopped-flow CO2 hydration assay
[2] = target: Carbonic anhydrase 2 (Homo sapiens, UniProt P00918); assay: Inhibition of human recombinant carbonic anhydrase-2 pre-incubated for 15 mins by stopped-flow CO2 hydration assay
[3] = target: Carbonic anhydrase 9 (Homo sapiens, UniProt Q16790); assay: Inhibition of human recombinant carbonic anhydrase-9 pre-incubated for 15 mins by stopped-flow CO2 hydration assay
[4] = target: Carbonic anhydrase 12 (Homo sapiens, UniProt O43570); assay: Inhibition of human recombinant carbonic anhydrase-12 pre-incubated for 15 mins by stopped-flow CO2 hydration assay
Chain of Carbonic anhydrase 12 (O43570 whole entry): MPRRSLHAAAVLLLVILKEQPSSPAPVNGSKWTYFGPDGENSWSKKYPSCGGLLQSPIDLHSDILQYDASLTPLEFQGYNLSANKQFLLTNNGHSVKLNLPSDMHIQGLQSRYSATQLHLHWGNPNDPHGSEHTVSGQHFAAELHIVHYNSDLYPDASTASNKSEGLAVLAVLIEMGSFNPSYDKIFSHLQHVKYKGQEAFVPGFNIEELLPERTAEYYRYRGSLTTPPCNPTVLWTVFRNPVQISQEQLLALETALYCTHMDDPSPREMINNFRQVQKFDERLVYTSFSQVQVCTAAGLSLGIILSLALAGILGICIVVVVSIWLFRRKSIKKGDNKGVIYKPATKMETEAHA

Chain of Carbonic anhydrase 1 (P00915 whole entry): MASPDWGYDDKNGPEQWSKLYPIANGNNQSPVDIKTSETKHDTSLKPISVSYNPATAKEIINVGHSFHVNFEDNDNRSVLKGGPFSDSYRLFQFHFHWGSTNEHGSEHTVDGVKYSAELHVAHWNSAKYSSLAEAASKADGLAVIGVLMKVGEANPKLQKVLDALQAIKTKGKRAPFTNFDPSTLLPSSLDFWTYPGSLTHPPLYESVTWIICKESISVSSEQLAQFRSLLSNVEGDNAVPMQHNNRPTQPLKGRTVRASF

Row | SMILES | Ki [1] [nM] | Ki [2] [nM] | Ki [3] [nM] | Ki [4] [nM]
1 | NS(=O)(=O)Oc1ccc(NC(=O)N2CCN(c3ccc(F)cc3)CC2)cc1 | 9.4 | 18.2 | 61.5 | 64.7
2 | Cc1cccc(N2CCN(C(=O)Nc3ccc(OS(N)(=O)=O)cc3)CC2)c1C | 63.5 | 11.1 | 32.3 | 1
3 | COc1cccc(N2CCN(C(=O)Nc3ccc(OS(N)(=O)=O)cc3)CC2)c1 | 88.1 | 11.2 | 34.1 | 37
4 | COc1ccc(N2CCN(C(=O)Nc3ccc(OS(N)(=O)=O)cc3)CC2)cc1 | 282 | 9.1 | 114 | 1.1
5 | NS(=O)(=O)Oc1ccc(NC(=O)N2CCN(c3nccc(-c4ccc(Br)cc4)n3)CC2)cc1 | – | – | 114 | –
6 | NS(=O)(=O)Oc1ccc(NC(=O)N2CCN(c3nccc(-c4ccc(C(F)(F)F)cc4)n3)CC2)cc1 | – | – | 24.3 | –
7 | O=C(Nc1ccc(O)cc1)N1CCN(Cc2ccccc2)CC1 | > 10000 | – | 113 | –
8 | O=C(Nc1ccc(O)cc1)N1CCN(c2ccccc2)CC1 | – | – | 121 | –
9 | O=C(Nc1ccc(O)cc1)N1CCN(c2ccc(F)cc2)CC1 | – | – | 36.9 | –
10 | O=C(Nc1ccc(O)cc1)N1CCN(c2ccc(Cl)cc2)CC1 | > 10000 | – | 80.5 | –
11 | Cc1cccc(N2CCN(C(=O)Nc3ccc(O)cc3)CC2)c1 | – | – | 549 | –

Stronger by Ki [3], values ahead:

Row | Ki [1] [nM] | Ki [2] [nM] | Ki [3] [nM] | Ki [4] [nM] | SMILES
12 | 317 | 11.7 | 10.5 | 1 | NS(=O)(=O)Oc1ccc(NC(=O)N2CCN(Cc3ccccc3)CC2)cc1
13 | 897 | 71.9 | 11.1 | 1 | NS(=O)(=O)Oc1ccc(NC(=O)N2CCN(c3ccccc3)CC2)cc1
14 | 581 | 16.9 | 10.4 | 84.5 | NS(=O)(=O)Oc1ccc(NC(=O)N2CCN(c3ccc(Cl)cc3)CC2)cc1
15 | 851 | 15.9 | 0.91 | 35.8 | Cc1cccc(N2CCN(C(=O)Nc3ccc(OS(N)(=O)=O)cc3)CC2)c1
16 | 70.2 | 1 | 6.7 | 1 | NS(=O)(=O)Oc1ccc(NC(=O)N2CCN(c3nccc(-c4cc5ccccc5o4)n3)CC2)cc1
